Experimental data: the NIST ThermoML archive (doi:10.1021/je800282a)

Columns and labels:
[1] = refractive index (Na D-line) (dimensionless); details: 101.33 kPa, Liquid
[2] = for viscosity: 101.33 kPa, Liquid
[3] = wn = mass fraction of the nth substance listed; details: for viscosity: 101 kPa, Liquid
[4] = refractive index (Na D-line) (dimensionless); wn = mass fraction of the nth substance listed; details: 101 kPa, Liquid

CN(CCO)CCO [N-methyldiethanolamine]
Details	refractive index, [1]	surface tension liquid-gas, [2] [mN/m]	viscosity, [2] [mPa·s]
298.15 K	–	–	77.85
303.15 K	1.46532	38.74	–
308.15 K	–	–	43.9
313.15 K	1.46074	37.48	–
318.15 K	1.45892	–	27.44
323.15 K	1.45708	36.82	–
328.15 K	–	–	17.89
333.15 K	1.45287	35.31	–
338.15 K	–	–	12.34

CN(CCO)CCO [N-methyldiethanolamine] + O
Details	refractive index	surface tension liquid-gas [mN/m]	viscosity [mPa·s]
[3], 298.15 K, w1 = 0.3228	–	–	3.48
[3], 298.15 K, w1 = 0.488	–	–	9.25
[3], 303.15 K, w1 = 0.3288	–	53.16	–
[3], 303.15 K, w1 = 0.488	–	47.56	–
[3], 308.15 K, w1 = 0.3228	–	–	2.26
[3], 308.15 K, w1 = 0.488	–	–	6.14
[3], 313.15 K, w1 = 0.3288	–	52.38	–
[3], 313.15 K, w1 = 0.488	–	46.92	–
[3], 318.15 K, w1 = 0.3228	–	–	1.82
[3], 318.15 K, w1 = 0.488	–	–	4.37
[3], 323.15 K, w1 = 0.3288	–	51.42	–
[3], 323.15 K, w1 = 0.488	–	45.58	–
[3], 328.15 K, w1 = 0.3228	–	–	1.34
[3], 328.15 K, w1 = 0.488	–	–	3.46
[3], 333.15 K, w1 = 0.3288	–	50.67	–
[3], 333.15 K, w1 = 0.488	–	44.83	–
[3], 338.15 K, w1 = 0.3228	–	–	1.17
[3], 338.15 K, w1 = 0.488	–	–	2.81
[4], 303.15 K, w1 = 0.3228	1.37748	–	–
[4], 303.15 K, w1 = 0.488	1.40298	–	–
[4], 313.15 K, w1 = 0.3228	1.37604	–	–
[4], 313.15 K, w1 = 0.488	1.39971	–	–
[4], 318.15 K, w1 = 0.3228	1.37467	–	–
[4], 318.15 K, w1 = 0.488	1.39629	–	–
[4], 323.15 K, w1 = 0.3228	1.37305	–	–
[4], 323.15 K, w1 = 0.488	1.39254	–	–
[4], 333.15 K, w1 = 0.3228	1.37134	–	–
[4], 333.15 K, w1 = 0.488	1.38821	–	–
